One test deals with T1, KDR (VEGFR2) (Homo sapiens, UniProt P35968).
T1 construct: expressed in transfected cells; host or cells: porcine aorta endothelial (PAE)-KDR cells
Kind of test: KDR (VEGFR2) phosphorylation in PAE-KDR cells assay. The test is classed as cell-based. Conditions: PAE cells overexpressing human KDR, VEGF stimulated; read-out: PAE KDR autophos IC50 (nM) AVG. Here is the method: KDR (VEGFR2) Phosphorylation in PAE-KDR Cells Assay
This assay determines the ability of a test compound to inhibit the autophosphorylation of KDR in porcine aorta endothelial (PAE)-KDR cells. PAE cells that overexpress human KDR were used in this assay. The cells were cultured in Ham's F12 media supplemented with 10% fetal bovine serum (FBS) and 400 ug/mL G418. Thirty thousands cells were seeded into each well of a 96-well plate in 75 μL of growth media and allowed to attach for 6 hours at 37° C. Cells were then exposed to the starvation media (Ham's F12 media supplemented with 0.1% FBS) for 16 hours. After the starvation period was over, 10 μL of test agent in 5% DMSO in starvation media were added to the test wells and 10 μL of the vehicle (5% DMSO in starvation media) were added into the control wells. The final DMSO concentration in each well was 0.5%. Plates were incubated at 37° C. for 1 hour and the cells were then stimulated with 500 ng/ml VEGF (commercially available from R & D System) in the presence of 2 mM Na3VO4 for 8 minutes. The cells were washed once with 1 mm Na3VO4 in HBSS and lysed by adding 50 μL per well of lysis buffer. One hundred μL of dilution buffer were then added to each well and the diluted cell lysate was transferred to a 96-well goat ant-rabbit coated plate (commercially available from Pierce) which was pre-coated with Rabbit anti Human Anti-flk-1 C-20 antibody (commercially available from Santa Cruz). The plates were incubated at room temperature for 2 hours and washed seven times with 1% Tween 20 in PBS. HRP-PY20 (commercially available from Santa Cruz) was diluted and added to the plate for a 30-minute incubation. Plates were then washed again and TMB peroxidase substrate (commercially available from Kirkegaard & Perry) was added for a 10-minute incubation. One hundred μL of 0.09 N H2SO4 was added to each well of the 96-well plates to stop the reaction. Phosphorylation status was assessed by spectrophotometer reading at 450 nm. IC50 values were calculated by curve fitting using a four-parameter analysis.

In the next test the target is T2, PDGFRβ (Homo sapiens, UniProt P09619).
T2 construct: expressed in transfected cells; host or cells: porcine aorta endothelial (PAE)-PDGFRβ cells
T2 sequence (P09619 33-1106): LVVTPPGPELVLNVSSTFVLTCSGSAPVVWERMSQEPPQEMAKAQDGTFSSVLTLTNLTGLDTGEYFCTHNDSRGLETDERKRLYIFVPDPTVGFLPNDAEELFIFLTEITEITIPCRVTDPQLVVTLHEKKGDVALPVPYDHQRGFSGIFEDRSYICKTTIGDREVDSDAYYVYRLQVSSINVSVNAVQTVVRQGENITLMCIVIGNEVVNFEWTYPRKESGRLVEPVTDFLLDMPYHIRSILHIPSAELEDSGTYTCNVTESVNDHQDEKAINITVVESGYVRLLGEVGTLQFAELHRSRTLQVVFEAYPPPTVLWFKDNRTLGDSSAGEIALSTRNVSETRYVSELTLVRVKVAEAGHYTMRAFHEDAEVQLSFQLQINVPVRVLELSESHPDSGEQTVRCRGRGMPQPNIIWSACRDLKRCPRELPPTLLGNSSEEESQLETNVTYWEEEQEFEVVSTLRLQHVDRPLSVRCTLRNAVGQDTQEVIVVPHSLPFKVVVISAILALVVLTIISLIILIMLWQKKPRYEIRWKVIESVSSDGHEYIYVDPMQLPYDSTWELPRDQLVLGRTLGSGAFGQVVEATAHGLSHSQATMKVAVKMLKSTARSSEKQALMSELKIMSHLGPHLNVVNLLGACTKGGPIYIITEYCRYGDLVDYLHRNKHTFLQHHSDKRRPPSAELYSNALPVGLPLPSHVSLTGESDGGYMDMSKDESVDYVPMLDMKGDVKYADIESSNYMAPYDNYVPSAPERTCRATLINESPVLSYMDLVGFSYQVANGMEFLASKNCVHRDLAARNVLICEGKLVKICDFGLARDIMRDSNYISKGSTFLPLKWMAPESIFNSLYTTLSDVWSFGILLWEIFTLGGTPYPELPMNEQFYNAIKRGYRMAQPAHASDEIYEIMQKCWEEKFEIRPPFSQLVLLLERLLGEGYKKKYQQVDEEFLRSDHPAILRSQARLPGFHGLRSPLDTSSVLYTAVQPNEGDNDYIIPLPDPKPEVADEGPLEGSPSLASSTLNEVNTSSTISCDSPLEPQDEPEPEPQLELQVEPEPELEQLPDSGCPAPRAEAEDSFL
Kind of test: PAE-PDGFRβ phosphorylation in PAE-PDGFRB cells assay. It is filed as cell-based. The settings on record: PAE cells overexpressing human PDGFRβ, PDGF-BB stimulated; read-out: PAE PDGFR autophos IC50 (nM) AVG. In a few lines:
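PAE cells overexpressing human PDGFRβ, serum-starved 16 h (0.1% FBS), were given compound for 1 h at 37 °C (0.5% DMSO) and then stimulated with 1 μg/mL PDGF-BB plus 2 mM Na3VO4 for 8 min. Receptor autophosphorylation was read by capture ELISA (HRP-PY20, TMB, 450 nm); IC50 from 4-parameter fit.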

A further test deals with Huvec. Briefly: bFGF Huvec proliferation. It is filed as cell-based, human. The settings on record: Homo sapiens, HUVEC.
In test [1] the test system is human umbilical vein endothelial cells (HUVEC). Briefly: HUVEC+VEGF proliferation assay. The test is classed as cell-based. Conditions: Homo sapiens, HUVEC; VEGF 6 ng/mL, 72 h, MTT. The procedure, abridged: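 Exponentially growing passage 3–4 HUVEC were starved 24 h in F12K + 1% FBS, given compound (0.1% final DMSO) 1 h before 6 ng/mL final VEGF, then cultured 72 h. Proliferation was read as MTT dye reduction (4 h exposure), absorbance at 595 nm.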

T1 sequence (P35968 20-1356): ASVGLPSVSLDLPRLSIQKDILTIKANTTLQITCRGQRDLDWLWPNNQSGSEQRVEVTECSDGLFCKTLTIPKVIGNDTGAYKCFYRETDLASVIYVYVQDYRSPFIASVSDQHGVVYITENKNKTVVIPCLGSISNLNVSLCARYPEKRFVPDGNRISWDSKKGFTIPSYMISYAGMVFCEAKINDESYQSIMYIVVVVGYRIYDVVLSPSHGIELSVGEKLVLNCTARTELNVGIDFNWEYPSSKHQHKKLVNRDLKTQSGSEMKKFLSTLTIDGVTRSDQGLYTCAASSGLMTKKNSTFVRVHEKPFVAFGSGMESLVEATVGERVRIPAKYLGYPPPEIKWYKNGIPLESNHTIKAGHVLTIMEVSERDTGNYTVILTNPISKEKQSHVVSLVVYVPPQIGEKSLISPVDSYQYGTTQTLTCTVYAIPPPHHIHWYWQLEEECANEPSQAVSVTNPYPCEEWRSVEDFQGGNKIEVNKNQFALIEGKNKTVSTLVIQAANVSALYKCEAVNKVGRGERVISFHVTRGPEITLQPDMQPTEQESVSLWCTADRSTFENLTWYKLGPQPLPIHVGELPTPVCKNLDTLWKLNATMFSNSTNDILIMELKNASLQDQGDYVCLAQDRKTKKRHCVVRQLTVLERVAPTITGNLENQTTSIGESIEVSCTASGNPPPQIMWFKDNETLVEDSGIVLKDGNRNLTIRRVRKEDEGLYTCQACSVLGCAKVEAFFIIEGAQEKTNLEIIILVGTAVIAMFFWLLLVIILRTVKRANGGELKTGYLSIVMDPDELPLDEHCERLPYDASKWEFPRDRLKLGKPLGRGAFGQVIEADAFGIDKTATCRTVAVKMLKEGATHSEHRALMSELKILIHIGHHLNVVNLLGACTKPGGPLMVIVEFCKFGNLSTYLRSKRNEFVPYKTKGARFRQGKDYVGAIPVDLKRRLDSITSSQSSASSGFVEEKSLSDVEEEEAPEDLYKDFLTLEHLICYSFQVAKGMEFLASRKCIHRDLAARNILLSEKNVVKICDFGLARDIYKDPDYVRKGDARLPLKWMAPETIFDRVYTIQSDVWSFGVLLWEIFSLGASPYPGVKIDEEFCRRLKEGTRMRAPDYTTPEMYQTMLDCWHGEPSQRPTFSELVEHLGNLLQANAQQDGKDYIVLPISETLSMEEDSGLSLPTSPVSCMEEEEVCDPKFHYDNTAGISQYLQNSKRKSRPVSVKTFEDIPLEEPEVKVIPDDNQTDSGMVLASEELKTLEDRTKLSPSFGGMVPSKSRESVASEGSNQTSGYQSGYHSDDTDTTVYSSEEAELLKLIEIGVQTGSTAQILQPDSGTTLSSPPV

Take `CNC(=O)c1c(C)n(C)c2cc(Oc3ccnc4cc(C(=O)N5CC[C@@H](OC)C5)sc34)ccc12` [Example 18, 1,2-dimethyl-6-(2-[3-methoxy-pyrrolidine-1-carbonyl]thieno[3,2-b]pyridin-7-yloxy)-1H-indole-3-carboxylic acid methylamide]: the IC50 on KDR (VEGFR2) was 0.62 nM; at PDGFRβ, 32 nM; with Huvec it was 1000 nM; in test [1], 0.64 nM.
With `CNC(=O)c1c(C)sc2cc(Oc3ccnc4cc(C(=O)N5CC[C@@H](OC)C5)sc34)ccc12` [Example 4, 6-(2-[(R)-3-methoxypyrrolidine-1-carbonyl]thieno[3,2-b]pyridin-7-yloxy)-2-methylbenzo[b]thiophene-3-carboxylic acid methylamide], the results for the IC50 (on KDR (VEGFR2); on PDGFRβ; in test [1]) were 0.47 nM, 284 nM and 0.404 nM, respectively.
For `CNC(=O)c1c(C)sc2cc(Oc3ccnc4cc(C(=O)N5CC[C@@H](O)C5)sc34)ccc12` [Example 6, 6-(2-[(R)-3-hydroxypyrrolidine-1-carbonyl]thieno[3,2-b]pyridin-7-yloxy)-2-methylbenzo[b]thiophene-3-carboxylic acid methylamide], the values for the IC50 (at PDGFRβ; in the test on Huvec; in test [1]) were 255 nM, 145 nM and 1.2 nM, respectively.
For `CNC(=O)c1c(C)sc2cc(Oc3ccnc4cc(C(=O)N5CCC[C@H]5COC)sc34)ccc12` [Example 2, 6-(2-[(S)-2-(methoxymethyl)pyrrolidine-1-carbonyl]thieno[3,2-b]pyridin-7-yloxy)-2-methylbenzo[b]thiophene-3-carboxylic acid methylamide], the IC50 stood at 1.8 nM on KDR (VEGFR2), 912 nM on PDGFRβ, 3330 nM in the test with Huvec and 2.3 nM in test [1].
Consider `CCCCNC(=O)c1c(C)n(C)c2cc(Oc3ccnc4cc(-c5nccs5)sc34)ccc12` [Example 62, 1,2-Dimethyl-6-(2-thiazol-2-yl-thieno[3,2-b]pyridin-7-yloxy)-1H-indole-3-carboxylic acid butylamide], for which the IC50 on KDR (VEGFR2) is 0.24 nM; on PDGFRβ, 18.7 nM; in the test on Huvec it was 619 nM; in test [1] it was 2.15 nM.
With `CNC(=O)c1c(C)sc2cc(Oc3ccnc4cc(C(=O)N5CCC[C@H]5CO)sc34)ccc12` [Example 3], the IC50 on KDR (VEGFR2) came out at 0.9 nM; at PDGFRβ it was 756 nM; in the test on Huvec it was 942 nM; in test [1] it was 0.442 nM.
Regarding `Cc1c(C(=O)NC2CC2)c2ccc(Oc3ccnc4cc(-c5nccn5C)sc34)cc2n1C` [Example 20, 1,2-Dimethyl-6-[2-(1-methyl-1H-imidazol-2-yl)-thieno[3,2-b]pyridin-7-yloxy]-1H-indole-3-carboxylic acid cyclopropylamide], the IC50 on KDR (VEGFR2) came to 0.217 nM; on PDGFRβ, 43 nM; in the test with Huvec it was 1900 nM; in test [1], 0.19 nM.
The like results for `CNC(=O)c1c(C)n(C)c2cc(Oc3ccnc4cc(C(=O)N5CC[C@@H](O)C5)sc34)ccc12` [Example 19, 1,2-dimethyl-6-(2-[3-hydroxy-pyrrolidine-1-carbonyl]thieno[3,2-b]pyridin-7-yloxy)-1H-indole-3-carboxylic acid methylamide] were, in that order, 1.7 nM, 172 nM, 10000 nM and 2.7 nM.
The like results for `CCCNC(=O)c1c(C)n(C)c2cc(Oc3ccnc4cc(-c5nccn5C)sc34)ccc12` [Example 61, 1,2-Dimethyl-6-[2-(1-methyl-1H-imidazol-2-yl)thieno[3,2-b]pyridin-7-yloxy]-1H-indole-3-carboxylic acid propylamide] were, in that order, 0.4 nM, 17.8 nM, 4000 nM and 0.605 nM.
`CNC(=O)c1c(C)oc2cc(Oc3ccnc4cc(C(=O)N5CC[C@@H](OC)C5)sc34)ccc12` [Example 12, 6-(2-[3-methoxypyrrolidine-1-carbonyl]thieno[3,2-b]pyridin-7-yloxy)-2-methylbenzofuran-3-carboxylic acid methylamide]: the IC50 stood at 0.14 nM on KDR (VEGFR2), 14.4 nM at PDGFRβ, 20 nM with Huvec and 0.26 nM in test [1].
In the same order, the values of `CNC(=O)c1c(C)n(C)c2cc(Oc3ccnc4cc(-c5nccn5C)sc34)ccc12` [Example 17, 1,2-dimethyl-6-(2-[1-methyl-1H-imidazol-2-yl]thieno[3,2-b]pyridin-7-yloxy)-1H-indole-3-carboxylic acid methylamide] are 0.47 nM, 20 nM, 847 nM and 1.2 nM.
With `CNC(=O)c1c(C)sc2cc(Oc3ccnc4cc(-c5nccn5C)sc34)ccc12` [Example 1, 2-methyl-6-(2-[1-methyl-1H-imidazol-2-yl]thieno[3,2-b]pyridin-7-yloxy)benzo[b]thiophene-3-carboxylic acid methylamide], the IC50 was determined as 0.31 nM on KDR (VEGFR2), 164 nM on PDGFRβ, 122 nM with Huvec and 0.68 nM in test [1].
With `CNC(=O)c1c(C)oc2cc(Oc3ccnc4cc(-c5nccn5C)sc34)ccc12` [Example 13], the IC50 on KDR (VEGFR2) came out at 0.21 nM; on PDGFRβ, 41 nM; in the test on Huvec, 27 nM; in test [1], 0.082 nM.

As usually defined, the IC50 is the midpoint of a concentration-inhibition curve.
